Data taken from patent US7300930B2, “Therapeutic acridone and acridine compounds” (Cancer Research Technology Limited, priority 2000, dated 2007).

Key:
telomerase = telomerase (Homo sapiens, UniProt O14746); test: Modified telomeric repeat amplification protocol (TRAP) assay, cell-free; assay type: biochemical; settings: extracts from A2780 cells, tested as salts, read-out: telIC50 (Telomerase Inhibitory Activity)
Procedure: The ability of compounds to inhibit telomerase in a cell-free assay was assessed with a modified TRAP assay using extracts from exponentially growing A2780 human ovarian carcinoma cells. The TRAP assay was performed in 2 steps: (a) telomerase-mediated extension of the forward primer (TS: 5′-AATCCGTCGAGCAGAGTT (SEQ ID NO:3), Oswel Ltd., Southampton, UK) contained in a 40 µL reaction mix comprising TRAP buffer (20 mM Tris-HCl (pH 8.3), 68 mM KCl, 1.5 mM MgCl2, 1 mM EGTA, 0.05% v/v Tween 20), 0.05 μg bovine serum albumin, 50 μM of each deoxynucleotide triphosphate, 0.1 μg TS primer, and 3 μCi of [α-^32P]dCTP (Amersham plc, UK). Protein (40 ng or 20 ng) was then incubated with the reaction mix+agent (acid addition and quaternary dimethiodide salts) at final concentrations of up to 50 μM for 20 min at 25° C. A lysis buffer (no protein) control, heat-inactivated protein control, and 50% protein (20 ng or 10 ng) control were included in each assay; and (b) while heating at 80° C. in a PCR block of a thermal cycler (Hybaid, UK) for 5 min to inactivate telomerase activity, 0.1 μg of reverse CX primer (3′-[…]-5′ (SEQ ID NO:4)) and 2 Units of Taq DNA polymerase (“red hot”, Advanced Biotechnologies) were added. A 3-step PCR was then performed: 94° C. for 30 s, 50° C. for 30 s, and 72° C. for 1 min for 31 cycles. Telomerase-extended PCR products in the presence or absence of compounds were then determined either by electrophoretic separation using 8% w/w acrylamide denaturing gels and analysis by phosphorimaging or autoradiography, or by harvesting on Whatman filters (25 mm glass microfibre) and analysis by liquid scintillation counting.

[1] = Growth inhibition, sulforhodamine B (SRB) assay, A2780; assay type: cell-based; settings: human, A2780 ovarian carcinoma cells, A2780, 96 hr incubation, tested as salts, read-out: Cytotoxicity - IC50 A2780
Procedure: (§1) Growth inhibition was measured in three human ovarian carcinoma cell lines (A2780, CH1, and SKOV-3) and one human cervix carcinoma cell line (A431) using the sulforhodamine B (SRB) assay. Briefly, between 3000 and 6000 cells were seeded into the wells of 96-well microtiter plates and allowed to attach overnight. Compounds (acid addition and quaternary dimethiodide salts) were dissolved at 500 μM in water and immediately added to wells in quadruplicate at final concentrations of 0.05, 0.25, 1, 5 and 25 μM. Following an incubation period of 96 hr, remaining cells were fixed with ice-cold 10% w/v trichloroacetic acid (30 min) and stained with 0.4% SRB in 1% v/v acetic acid (15 min). Mean absorbance at 540 nm for each drug concentration was expressed as a percentage of the control untreated well absorbance, and IC50 values (concentration required to inhibit cell growth by 50%) were determined for each agent.

[2] = Growth inhibition, sulforhodamine B (SRB) assay, CH1; assay type: cell-based; settings: human, CH1 ovarian carcinoma cells, CH1, 96 hr incubation, tested as salts, read-out: Cytotoxicity - IC50 CH1
Procedure: as §1

[3] = Growth inhibition, sulforhodamine B (SRB) assay, SKOV-3; assay type: cell-based; settings: human, SKOV-3 ovarian carcinoma cells, SKOV-3, 96 hr incubation, tested as salts, read-out: Cytotoxicity - IC50 SKOV-3
Procedure: as §1

[4] = Growth inhibition, sulforhodamine B (SRB) assay, A431; assay type: cell-based; settings: human, A431 cervix carcinoma cells, A431, 96 hr incubation, tested as salts, read-out: Cytotoxicity - IC50 A431
Procedure: as §1

Chain of telomerase (O14746 whole entry): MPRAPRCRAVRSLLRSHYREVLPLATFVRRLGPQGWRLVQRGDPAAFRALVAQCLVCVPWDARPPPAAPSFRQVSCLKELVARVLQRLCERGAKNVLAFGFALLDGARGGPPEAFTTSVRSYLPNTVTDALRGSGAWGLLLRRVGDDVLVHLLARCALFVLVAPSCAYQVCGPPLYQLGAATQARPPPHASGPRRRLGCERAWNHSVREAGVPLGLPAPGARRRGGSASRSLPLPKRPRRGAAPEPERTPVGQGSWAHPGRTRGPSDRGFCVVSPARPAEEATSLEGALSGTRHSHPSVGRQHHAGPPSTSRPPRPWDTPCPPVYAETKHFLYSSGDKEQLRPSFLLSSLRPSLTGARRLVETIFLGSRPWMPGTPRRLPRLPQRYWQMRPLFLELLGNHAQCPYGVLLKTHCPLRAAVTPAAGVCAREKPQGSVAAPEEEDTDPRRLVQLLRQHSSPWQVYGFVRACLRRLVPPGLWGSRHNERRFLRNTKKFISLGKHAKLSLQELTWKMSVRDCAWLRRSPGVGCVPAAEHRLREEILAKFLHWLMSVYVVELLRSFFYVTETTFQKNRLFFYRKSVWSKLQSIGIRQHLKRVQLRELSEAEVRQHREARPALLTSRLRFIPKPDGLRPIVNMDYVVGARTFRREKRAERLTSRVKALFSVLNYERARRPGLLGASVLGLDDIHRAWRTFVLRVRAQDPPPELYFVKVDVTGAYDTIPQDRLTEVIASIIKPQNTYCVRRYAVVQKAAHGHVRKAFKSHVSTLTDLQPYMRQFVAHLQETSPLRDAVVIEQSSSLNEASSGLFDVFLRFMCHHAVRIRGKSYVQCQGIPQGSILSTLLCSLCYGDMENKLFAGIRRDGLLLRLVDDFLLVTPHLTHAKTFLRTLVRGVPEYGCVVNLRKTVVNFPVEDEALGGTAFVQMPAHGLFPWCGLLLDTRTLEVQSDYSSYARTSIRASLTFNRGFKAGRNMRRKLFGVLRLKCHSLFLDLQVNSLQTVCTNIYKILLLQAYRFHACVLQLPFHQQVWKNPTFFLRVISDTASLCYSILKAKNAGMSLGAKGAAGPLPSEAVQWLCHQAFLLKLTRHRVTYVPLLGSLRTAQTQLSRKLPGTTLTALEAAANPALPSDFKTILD

Row | SMILES | IC50 (telomerase) [µM] | IC50 at 96 h [1] [µM] | IC50 at 96 h [2] [µM] | IC50 at 96 h [3] [µM] | IC50 at 96 h [4] [µM]
1 | CC1CCCCN1CCC(=O)Nc1ccc2c(=O)c3ccc(NC(=O)CCN4CCCCC4C)cc3[nH]c2c1 (stereo not drawn) [BR-ACO-36, 3,6-Bis[3-(2-methylpiperidino)propionamido]-9(10H)-acridone] | 3.3 | 13 | 11.8 | 12 | –
2 | O=C(CCN1CCCC1)Nc1ccc2nc3ccc(NC(=O)CCN4CCCC4)cc3c(O)c2c1 [BR-ACO-9, 2,7-Bis[3-(pyrrolidino)propionamido]-9(10H)-acridone] | 2.8 | > 25 | > 25 | > 25 | –
3 | CN(C)CCC(=O)Nc1ccc2c(=O)c3ccc(NC(=O)CCN(C)C)cc3[nH]c2c1 [BR-ACO-6, 3,6-Bis[3-(dimethylamino)propionamido]-9(10H)-acridone] | 4.3 | > 25 | > 25 | > 25 | –
4 | Nc1ccc(Nc2c3ccc(NC(=O)CCN4CCCC4)cc3nc3ccc(NC(=O)CCN4CCCC4)cc23)cc1 [JH-ACI-105, N-{9-[4′-(Amino)phenylamino]}-2,6-bis(3-pyrrolidinopropionamido)acridine] | 0.08 | > 25 | 15.8 | > 25 | > 25
5 | CC1CCN(CCC(=O)Nc2ccc3c(=O)c4ccc(NC(=O)CCN5CCC(C)CC5)cc4[nH]c3c2)CC1 [BR-ACO-33, 3,6-Bis[3-(4-methylpiperidino)propionamido]-9(10H)-acridone] | 1.9 | 3 | 3 | 5.6 | –
6 | CN1CCN(CCC(=O)Nc2ccc3[nH]c4ccc(NC(=O)CCN5CCN(C)CC5)cc4c(=O)c3c2)CC1 [JH-ACO-28, 2,7-Bis[3-(4′-N-methyl)piperizinopropionamido]-9(10H)-acridone] | 0.66 | > 25 | > 25 | > 25 | > 25
7 | O=C(CCN1CCC(O)CC1)Nc1ccc2nc3ccc(NC(=O)CCN4CCC(O)CC4)cc3c(O)c2c1 [JM-ACO-09, 2,7-Bis[3-(4-hydroxypiperidino)propionamido]-9(10H)-acridone] | 1.58 | > 25 | > 25 | > 25 | > 25
8 | O=C(CCN1CCCCC1)Nc1ccc2nc3ccc(NC(=O)CCN4CCCCC4)cc3c(O)c2c1 [BR-ACO-10, 2,7-Bis[3-(piperidino)propionamido]-9(10H)-acridone] | 5.8 | > 25 | > 25 | > 25 | –
9 | CSc1ccccc1Nc1c2ccc(NC(=O)CCN3CCCC3)cc2nc2cc(NC(=O)CCN3CCCC3)ccc12 [JC-ACI-4, N-{9-[2′-(Methylsulfanyl)phenylamino]}-3,6-bis(3-pyrrolidinopropionamido)acridine] | 0.15 | – | – | – | 2.5
10 | O=C(CCN1CCCC1)Nc1ccc2c(=O)c3ccc(NC(=O)CCN4CCCC4)cc3[nH]c2c1 [BR-ACO-4, 3,6-Bis[3-(pyrrolidino)propionamido]-9(10H)-acridone] | 8 | > 25 | > 25 | > 25 | –

Further compounds by falling IC50 (telomerase), results first:

Row | IC50 (telomerase) [µM] | SMILES | IC50 at 96 h [1] [µM] | IC50 at 96 h [2] [µM] | IC50 at 96 h [3] [µM] | IC50 at 96 h [4] [µM]
11 | 49 | O=C(CCN1CCOCC1)Nc1ccc2c(O)c3ccc(NC(=O)CCN4CCOCC4)cc3nc2c1 [BR-ACO-8, 3,6-Bis[3-(morpholino)propionamido]-9(10H)-acridone] | > 25 | > 25 | > 25 | –
12 | 5.9 | O=C(CCN1CCCCC1)Nc1ccc2c(=O)c3ccc(NC(=O)CCN4CCCCC4)cc3[nH]c2c1 [BR-ACO-5, 3,6-Bis[3-(piperidino)propionamido]-9(10H)-acridone] | 19 | 13 | 21 | –
13 | 5.7 | CCN(CC)CCC(=O)Nc1ccc2c(=O)c3ccc(NC(=O)CCN(CC)CC)cc3[nH]c2c1 [BR-ACO-7, 3,6-Bis[3-(diethylamino)propionamido]-9(10H)-acridone] | > 25 | > 25 | > 25 | –
14 | 1.97 | CC1CCCCN1CCC(=O)Nc1ccc2nc3ccc(NC(=O)CCN4CCCCC4C)cc3c(O)c2c1 (stereo not drawn) [JM-ACO-07, 2,7-Bis[3-(2-methylpiperidino)propionamido]-9(10H)-acridone] | > 25 | > 25 | > 25 | > 25
15 | 1.92 | CN(C)CCC(=O)Nc1ccc2nc3ccc(NC(=O)CCN(C)C)cc3c(O)c2c1 [JH-ACO-22, 2,7-Bis(3-dimethylaminopropionamido)-9(10H)-acridone] | > 25 | > 25 | > 25 | > 25
16 | 1.8 | O=C(CCN1CCC(O)CC1)Nc1ccc2c(O)c3ccc(NC(=O)CCN4CCC(O)CC4)cc3nc2c1 [BR-ACO-34, 3,6-Bis[3-(4-hydroxypiperidino)propionamido]-9(10H)-acridone] | > 25 | > 25 | > 25 | –
17 | 1.6 | CCC1CCCCN1CCC(=O)Nc1ccc2c(=O)c3ccc(NC(=O)CCN4CCCCC4CC)cc3[nH]c2c1 (stereo not drawn) [BR-ACO-37, 3,6-Bis[3-(2-ethylpiperidino)propionamido]-9(10H)-acridone] | 11.8 | 11 | 10.5 | –
18 | 0.74 | CCN1CCN(CCC(=O)Nc2ccc3c(=O)c4ccc(NC(=O)CCN5CCN(CC)CC5)cc4[nH]c3c2)CC1 [BR-ACO-39] | > 25 | > 25 | > 25 | –
19 | 0.21 | O=C(CCN1CCCC1)Nc1ccc2c(NC3CCCCCC3)c3ccc(NC(=O)CCN4CCCC4)cc3nc2c1 [JH-ACI-88, N-[9-(Cycloheptylamino)]-3,6-bis(3-pyrrolidinopropionamido)acridine] | 3.2 | 2.8 | 9.3 | 3.2
20 | 0.14 | CN(C)c1ccc(Nc2c3ccc(NC(=O)CCN4CC5(C)CC4CC(C)(C)C5)cc3nc3cc(NC(=O)CCN4CC5(C)CC4CC(C)(C)C5)ccc23)cc1 [JH-ACI-103, N-{9-[4′-(N,N-Dimethylamino)phenylamino]}-3,6-bis[(1,3,3-trimethyl-6-azabicyclo[3.2.1]-octanamino)propionamido]-acridine] | 1 | 3.2 | 2 | 2.5
21 | 0.07 | O=C(CCN1CCCC1)Nc1ccc2c(Nc3ccc(F)cc3)c3ccc(NC(=O)CCN4CCCC4)cc3nc2c1 [JC-ACI-3, N-{9-[4′-Fluorophenylamino]}-3,6-bis(3-pyrrolidinopropionamido)acridine] | – | – | – | 2.5
22 | 0.066 | O=C(CCN1CCCC1)Nc1ccc2c(NCc3cccnc3)c3ccc(NC(=O)CCN4CCCC4)cc3nc2c1 [SB-ACI-13, N-[9-(Pyridin-3′-yl-methylamino)]-3,6-bis(3-pyrrolidinopropionamido)acridine] | > 25 | > 25 | > 25 | > 25
23 | 0.05 | O=C(CCN1CCCC1)Nc1ccc2c(NC3CC3)c3ccc(NC(=O)CCN4CCCC4)cc3nc2c1 [JM-ACI-14, N-[9-(Cyclopropylamino)]-3,6-bis(3-pyrrolidinopropionamido)acridine] | 19 | > 25 | > 25 | > 25
24 | 0.018 | CN(C)CCNc1c2ccc(NC(=O)CCN3CCCC3)cc2nc2cc(NC(=O)CCN3CCCC3)ccc12 [SB-ACI-11, N-[9-(N,N-Dimethylethylenediamino)]-3,6-bis(3-pyrrolidinopropionamido)acridine] | > 25 | 17 | > 25 | > 25
